# Measured values: ChEMBL document CHEMBL3045720, “Synthesis and antifungal activity of 2-chloromethyl-1H-benzimidazole derivatives against phytopathogenic fungi in vitro” (J Agric Food Chem, 2013)
# How the values were obtained:
# Fusarium solani [1] = experiment: Antifungal activity against Fusarium solani assessed as inhibition of mycelium growth at 100 ug/ml […]; assay type: functional; conditions: 168 h, read-out: GI
# Botrytis cinerea [2] = experiment: Antifungal activity against Botryotinia fuckeliana assessed as inhibition of mycelium growth at 100 ug/ml […]; assay type: functional; conditions: 168 h, read-out: GI
# Alternaria solani [3] = experiment: Antifungal activity against Alternaria solani assessed as inhibition of mycelium growth at 100 ug/ml […]; assay type: functional; conditions: 168 h, read-out: GI
# Cytospora [4] = experiment: Antifungal activity against Cytospora sp. assessed as inhibition of mycelium growth at 100 ug/ml after 3 to 4 days; conditions: 72 to 96 h, read-out: GI
# [5] = system: Colletotrichum gloeosporioides; experiment: Antifungal activity against Colletotrichum gloeosporioides assessed as inhibition of mycelium growth at 100 ug/ml after 3 to 4 days; conditions: 72 to 96 h, read-out: GI
# Fusarium solani [6] = experiment: Antifungal activity against Fusarium solani assessed as inhibition of mycelium growth after 1 week; assay type: functional, organism-based
# Alternaria solani [7] = experiment: Antifungal activity against Alternaria solani assessed as inhibition of mycelium growth after 1 week; assay type: functional, organism-based
# Botrytis cinerea [8] = experiment: Antifungal activity against Botryotinia fuckeliana assessed as inhibition of mycelium growth after 1 week; assay type: functional, organism-based; conditions: 168 h
# [9] = system: Colletotrichum gloeosporioides; experiment: Antifungal activity against Colletotrichum gloeosporioides assessed as inhibition of mycelium growth […]; assay type: functional, organism-based
# Cytospora [10] = experiment: Antifungal activity against Cytospora sp. assessed as […]; assay type: functional, organism-based
# [11] = Fusarium solani, 168 h, read-out: IC50
# [12] = Alternaria solani, 168 h, read-out: IC50
# [13] = Colletotrichum gloeosporioides, read-out: IC50
# [14] = Cytospora, 168 h, read-out: IC50
Compound,inhibition of growth at 100 µg/mL (Fusarium solani [1]) [%],inhibition of growth at 100 µg/mL (Botrytis cinerea [2]) [%],inhibition of growth at 100 µg/mL (Alternaria solani [3]) [%],inhibition of growth at 100 µg/mL (Cytospora [4]) [%],inhibition of growth at 100 µg/mL [5] [%],IC50 (Fusarium solani [6]; [11]) [mg/L],IC50 (Alternaria solani [7]; [12]) [mg/L],IC50 (Botrytis cinerea [8]) [mg/L],"IC50 [9, 13] [mg/L]",IC50 (Cytospora [10]; [14]) [mg/L],IC50 (Fusarium solani [6]),IC50 (Alternaria solani [7]),IC50 (Cytospora [10]),IC50 [9]
COC(=O)c1ccc(OCc2nc3cc([N+](=O)[O-])ccc3n2C)cc1,18,32.2,< 5,< 5,59.1,,,,,,,,,
CCOC(=O)c1ccc(OCc2nc3cc([N+](=O)[O-])ccc3n2C)cc1,< 5,< 5,11.3,< 5,< 5,,,,,,,,,
CC(=O)c1ccccc1OCc1nc2cc([N+](=O)[O-])ccc2n1C,< 5,< 5,13.8,< 5,< 5,,,,,,,,,
Cn1c(COc2ccc(F)cc2)nc2ccccc21,83.9,47.4,85.2,80.6,62.7,31.5,69.3,> 120,> 100,58.2,,,,
O=S(=O)(c1ccc(Cl)cc1)n1c(CCl)nc2ccccc21,28.1,57.3,31.9,27.4,74.6,,,> 100,22.3,,Not Active,Not Active,Not Active,
C=CCc1ccc(OCc2nc3cc([N+](=O)[O-])ccc3n2C)c(OC)c1,25.4,24,35.1,< 5,< 5,,,,,,,,,
Cn1c(COc2cccc3ccccc23)nc2ccccc21,53,< 5,50.7,62.6,22.2,,,,,,,,,
CNc1ccccc1N(C)C(=O)CCl,30.1,64.4,25.3,< 5,41.3,,,,,,,,,
CC(=O)c1ccc(OCc2nc3ccccc3n2C)cc1,81.8,65.4,55.7,87.1,38.1,39,> 100,89.6,> 120,50.7,,,,
CC(=O)c1ccccc1OCc1nc2ccccc2n1C,64.7,64.9,65.5,64.5,71.4,> 100,> 100,> 100,70.6,> 100,,,,
Cn1c(COc2ccc3c(c2)OCO3)nc2ccccc21,74.5,88.3,64,80.6,81,73,> 100,63.7,55.7,54.3,,,,
CC(=O)c1cccc(OCc2nc3ccccc3n2C)c1,78.5,82.5,64.5,55.5,41.3,82.4,> 100,68.9,> 120,> 100,,,,
Cc1cc(O)no1 [HYMEXAZOL],72.5,100,80.3,38.9,49.2,38.5,14,8.92,> 100,> 100,,,,
Cn1c(CCl)nc2ccccc21,28.8,91.5,51.6,45.4,69.6,> 150,> 100,68.1,80.3,> 100,,,,
CS(=O)(=O)n1c(CCl)nc2ccccc21,79.2,79.9,68,100,100,40.1,> 100,57.7,11.4,31,,,,
COC(=O)c1ccc(OCc2nc3ccccc3n2C)cc1,48.2,6.43,64.6,31,< 5,,,,,,,,,
C=CCc1ccc(OCc2nc3ccccc3n2C)c(OC)c1,60.4,47.4,40.1,49.7,38.1,,,,,,,,,

Compound,inhibition of growth at 100 µg/mL (Fusarium solani [1]) [%],inhibition of growth at 100 µg/mL (Botrytis cinerea [2]) [%],inhibition of growth at 100 µg/mL (Alternaria solani [3]) [%],inhibition of growth at 100 µg/mL (Cytospora [4]) [%],inhibition of growth at 100 µg/mL [5] [%],IC50 (Fusarium solani [6]; [11]) [mg/L],IC50 (Alternaria solani [7]; [12]) [mg/L],IC50 (Botrytis cinerea [8]) [mg/L],"IC50 [9, 13] [mg/L]",IC50 (Cytospora [10]; [14]) [mg/L],IC50 (Fusarium solani [6]),IC50 (Alternaria solani [7]),IC50 (Cytospora [10]),IC50 [9]
CCCOC(=O)c1ccc(OCc2nc3cc([N+](=O)[O-])ccc3n2C)cc1,19.4,< 5,8.05,10.9,< 5,,,,,,,,,
CC(=O)n1c(CCl)nc2ccccc21,21.4,57.3,11.3,8.05,43.9,,,50.9,> 150,,Not Active,Not Active,Not Active,
Cn1c(COc2ccc(Cl)cc2)nc2cc([N+](=O)[O-])ccc21,< 5,100,30.2,10.2,6.35,,,13.4,,,Not Active,Not Active,Not Active,Not Active
Cn1c(COc2ccccc2)nc2cc([N+](=O)[O-])ccc21,5.91,7.89,10.5,< 5,< 5,,,,,,,,,
Cn1c(COc2ccc(C(C)(C)C)cc2)nc2cc([N+](=O)[O-])ccc21,< 5,57.3,30.2,< 5,30.2,,,,,,,,,
Cn1c(COc2ccc(C=O)cc2)nc2ccccc21,12,< 5,27.8,21,49.2,,,,,,,,,
CC(=O)c1ccc(OCc2nc3cc([N+](=O)[O-])ccc3n2C)cc1,< 5,38.6,33.5,< 5,< 5,,,,,,,,,
Cn1c(COc2ccc(C(C)(C)C)cc2)nc2ccccc21,< 5,64.8,23.6,28.2,63.8,,,,,,,,,
COc1cc(C=O)ccc1OCc1nc2ccccc2n1C,24.7,15.2,40.9,10.2,< 5,,,,,,,,,
Cn1c(COc2ccc(C=O)cc2)nc2cc([N+](=O)[O-])ccc21,< 5,< 5,16.3,9.48,< 5,,,,,,,,,
Cn1c(COc2ccc([N+](=O)[O-])cc2)nc2ccccc21,8.6,< 5,11.3,19.5,41.3,,,,,,,,,
CC(=O)c1cccc(OCc2nc3cc([N+](=O)[O-])ccc3n2C)c1,< 5,< 5,< 5,51.9,< 5,,,,,,,,,
Cn1c(COc2ccc(F)cc2)nc2cc([N+](=O)[O-])ccc21,9.95,< 5,< 5,22.4,< 5,,,,,,,,,
Cn1c(COc2cccc3ccccc23)nc2cc([N+](=O)[O-])ccc21,< 5,< 5,19.5,< 5,< 5,,,,,,,,,
CCCOC(=O)c1ccc(OCc2nc3ccccc3n2C)cc1,42.2,< 5,63.6,48.3,20.6,,,,,,,,,
COc1cc(C(C)=O)ccc1OCc1nc2ccccc2n1C,< 5,59.1,17.9,26,14.3,,,,,,,,,
